The record followed here is article PMC10605077, “In Vitro and In Silico Antiviral Activity of Di-Halogenated Compounds Derived from L-Tyrosine against Human Immunodeficiency Virus 1 (HIV-1)” (Current Issues in Molecular Biology, 2023).

Data set [1] deals with TZM-bl cells. Description: MTT cytotoxicity assay. It is filed as cell-based. How it is done:
(§1) The in vitro cytotoxic effect of the di-halogenated compounds on TZM-bl cells was determined with the MTT (3-(4,5-Dimethylthiazol-2-yl)-2,5-diphenyltetrazolium bromide) assay (Sigma-Aldrich, St. Louis, MO, USA). For this purpose, 1.2 × 10^5 cells/well were seeded in 96-well plates, which were incubated at 37 °C and 5% CO2 for 24 h. DMEM was used as a negative control and serial two-fold dilutions of the compounds were performed at 9.37 to 300 μM in DMEM supplemented with 5% FBS. A total of 100 μL/well of each dilution was added and incubated for 48 h. Subsequently, the cells were washed 2 times with 1X PBS, and 30 μL of MTT solution (2 mg/mL) was added and incubated for 2 h at 37 °C, in a light-protected culture. Then, 100 µL of DMSO was added to dissolve the formazan crystals, placed in shaking for 15 min, and absorbance reading was performed at 570 nm, using the Microplate Spectrophotometer (Thermo Scientific™ Multiskan™ GO, Waltham, MA, USA). Two independent experiments evaluated each experimental condition in quadruplicate (n = 8). The percentage of viability was calculated concerning the absorbance of the controls without a compound (100% viability). The 50% cytotoxic concentration was defined as the concentration of each compound that can reduce cell viability to 50% of the untreated cell control. CC50 was calculated and analyzed with GraphPad Prism version 8.0.1 (GraphPad Software, Inc., San Diego, CA, USA).
(In general: Formazan colour is commonly taken as a measure of viable cells.)

A short description of data set [2]: MTT cytotoxicity assay. It counts as cell-based. Conditions: human; TZM-bl cells, MTT, 48 h. The procedure:
as §1

Data set [3] concerns HIV-1IIIB (X4). Description: Anti-HIV activity in infected TZM-bl cells (luciferase), pre- and post-infection treatment. It is filed as cell-based, Human Immunodeficiency Virus Type 1 (HIV-1). The note with it: for inhibition at 18 µM / inhibition at 37 µM / inhibition at 75 µM / inhibition at 150 µM / IC50: TZM-bl cells; for inhibition at 18 µM / inhibition at 37 µM / inhibition at 75 µM / inhibition at 150 µM: read-out: Percentage inhibition of HIV-1IIIB (X4 strain) replication; for SI: selectivity index against HIV-1IIIB (CC50 and IC50 of Table 4); for IC50: Human immunodeficiency virus 1, HIV-1IIIB (X4), luciferase, 48 h. How it is done: (§2) TZM-bl cells were plated in a flat-bottom 96-well plate (Corning Inc., Corning, New York, NY, USA) at the concentration of 1.2 × 10^5 cells/well and incubated for 24 h at 37 °C before the addition or not of each compound at non-cytotoxic concentrations (pre-infection treatment). Then, 1 h later the treatment was removed, and the infection was performed by adding 10 ng/mL of HIV-1IIIB p24 (X4) or 2 ng/mL of HIV-1 BaL (R5). After 3 h, the virus was removed and washed, and the compound dilutions were added again (post-infection treatment). Additionally, three wells were left for the negative control (cells without treatment or infection), the positive control of infection (cells infected with the virus without treatment), and the positive control of inhibition (AZT). Antiviral activity was quantified 48 h after treatment by measuring luciferase activity, which is directly proportional to the number of infectious virus particles in the sample [23]. The luciferase activity was quantified via luminescence emitted by the cells using Bright-GloTM Luciferase Assay System (Promega Corp., Madison, WI, USA), following the manufacturer’s instructions. Briefly, 100 μL of the reagent was added to 100 μL of TZM-bl cells and incubated for at least 2 min, protected from light. Relative light units (RLUs) were measured using the multi-mode plate reader (Thermo ScientificTM VarioskanTM LUX). Each experimental condition was performed in triplicate in two independent experiments (n = 6). The percentage inhibition was calculated as follows: 100 − (RLU of treated cells − RLU of uninfected cells/RLU of infection control − RLU of uninfected cells) × 100.

In data set [4] the test system is HIV-1 BaL (R5). The description is as above. It counts as cell-based, Human Immunodeficiency Virus Type 1 (HIV-1). Conditions: for IC50: 48 h, HIV-1 BaL (R5), luciferase; for SI: selectivity index against HIV-1 BaL (CC50 and IC50 of Table 3). The procedure: as §2
For data set [5], the system named is HIV-1 BaL. Description: Anti-HIV activity in PBMC, p24 ELISA of supernatant. Conditions: Human immunodeficiency virus 1, BAL, PBMC, AZT (10 µM); read-out: inhibition of HIV-1 BaL in PBMC, extracellular p24 ELISA. It is filed as cell-based. In general terms: An ELISA detects its analyte on a solid surface through an enzyme-linked reagent.
Data set [6] deals with PBMC. Description: Viability assay of PBMC, flow cytometry with viability dye. It is filed as cell-based, Human. Conditions: PBMCs. How it is done: (§3) PBMCs were thawed and let in the culture in RPMI with 10% fetal bovine serum (FBS) (Gibco, Grand Island, NY, USA) for 24 h before each experiment. Cells were stimulated for 48 h with 8 μg/mL of Phytohemagglutinin-PHA (Sigma-Aldrich, St. Louis, MO, USA) and 50 UI/mL of IL-2 (Peprotech, Rocky Hill, CT, USA). In the presence of various concentrations of di-halogenated compounds derived from L-Tyrosine, 2 × 10^5 cells per well were treated and resuspended in 200 µL of fresh medium with 20 UI/mL of IL-2 and incubated in 96-well culture plates for 7 days. After 7 days post-treatment, cell viability was determined using flow cytometry. Briefly, cells were stained with fixable viability dye eFluor 506 (eBioscience, Leicestershire, UK) as detailed in the manufacturer’s protocol for 30 min in the dark. Later, cells were washed and resuspended in PBS, and the percentage of viable cells was measured instead in the LS Fortessa cytometer (BD Biosciences, Franklin Lakes, NJ, USA). Data were analyzed using FlowJo version 10.5.3 (FlowJo, LLC, Ashland, OR, USA).
A general note: A flow cytometer gives signals particle by particle.

For data set [7], the system named is HIV-1 BaL. Description: Anti-HIV activity in PBMC, intracellular p24 by flow cytometry. It is filed as cell-based. The procedure: In the presence of various concentrations of the most bioactive compounds, 1×10^6 PBMCs previously stimulated with 8 μg/mL of PHA and 50UI/mL of IL-2 were treated for 1 h. […] After spinoculation, cells were washed twice with PBS 1x to remove free virions, and then, fresh medium supplemented with 20 UI/mL of IL-2, with or without the di-halogenated compounds derived from L-Tyrosine dilutions, was added. Cells were plated in 96-well culture plates and incubated for 7 days. […] In addition, antiviral activity was also assessed by measuring intracellular p24 in harvested cells. Briefly, cells were stained with fixable viability dye eFluor 506 (eBioscience, Leicestershire, UK), CD3 (UCHT1; Thermo Scientific, Wilmington, DE, USA), CD4 (RPA-T4; BD Biosciences, San Jose, CA, USA), and p24 PE (KC57; Beckman Coulter, Pasadena, CA, USA), as detailed in the manufacturer’s protocol. Later, cells were washed and resuspended in PBS, and the lecture was measured instead in the LS Fortessa cytometer (BD Biosciences, Franklin Lakes, NJ, USA). Data were analyzed using FlowJo version 10.5.3 (FlowJo, LLC, Ashland, OR, USA).

For data set [8], the system named is HIV-GFP-VSV-G reporter virus. Description: microbe, parasite or virus in culture. It is filed as cell-based, HIV-1.
Data set [9] is described as follows: Viability assay of PBMC, flow cytometry with viability dye. The note with it: human, PBMC stimulated with PHA and IL-2; all concentrations tested (18.75 μM up to 150 μM), 7 days; read-out: viability level on PBMCs. It counts as cell-based, Human. The procedure:
as §3

Setting [10] is: Human immunodeficiency virus 1, TZM-bl.
Setting [11] is: Human immunodeficiency virus 1, BAL, TZM-bl cells, read-out: Percentage inhibition of HIV-1 BaL replication.
Where [12] appears, read: Human immunodeficiency virus 1, TZM-bl, read-out: percentage inhibition of HIV-GFP-VSV-G replication.
Setting [13] is: Human immunodeficiency virus 1, BAL, TZM-bl, TZM-bl cells.

“Also recorded” adds a separate entry of the source. A value given as a limit tells only on which side of the number the result lay.

In general, CC50 refers to the concentration giving 50% cytotoxicity. A low value points to greater toxicity to the cells. By inhibition is commonly meant the change of the read-out against control, counted positive when it falls. In the case of `C[N+](C)(C)CCc1cc(Br)c(O)c(Br)c1` [YDB-3M], the cytotoxicity level result in data set [1] (150 μM, 48 h) is recorded as “higher level of cytotoxicity”. The same molecule yielded a CC50 at 48 h in data set [2] of about 101 µM. Also, in data set [3] (setting [10]), the inhibition at 18 µM turned out to be 39.2%, the inhibition at 37 µM was determined as 1.8% and the inhibition at 75 µM is -19.4%. The molecule also came in with an SI in data set [3] of about 32.65. Besides, the “anti-HIV activity against R5 strain in words” value in data set [4] (HIV-1 BaL, TZM-bl cells) is recorded as “had no activity; also recorded: did not show significant anti-HIV activity”. Besides, in [4] (setting [11]), the inhibition at 18 µM was 7.2% and the inhibition at 37 µM was -10.2%.
As to `Cc1cn([C@H]2C[C@H](N=[N+]=[N-])[C@@H](CO)O2)c(=O)[nH]c1=O` [AZT, Zidovudine, reference compound], the toxicity in words result is “Neither the viral inhibition control (AZT) nor the solvent (DMSO) was toxic” in [1] and “Neither the viral inhibition control (AZT) nor the solvent (DMSO) proved toxic” in [6]. Also, the inhibition at 10 µM in data set [5] is over 90%; in [7] (Human immunodeficiency virus 1, BAL, PBMC, AZT (10 µM), positive control, read-out: inhibition of HIV-1 BaL replication in PBMC, flow cytometry (intracellular p24)), 99.4%; in [8] (setting [12]), 93.2%; in data set [3] (Human immunodeficiency virus 1, TZM-bl, read-out: inhibition of virus infections (HIV-1IIIB)), over 90%; in data set [4] (Human immunodeficiency virus 1, BAL, TZM-bl, read-out: inhibition of viral infection (HIV-1 BaL)) it was over 90%.
As usually defined, the viability is a read-out of living cells in per cent, often relative to untreated cells. Broadly, the IC50 is the midpoint of a concentration-inhibition curve. Lower therefore signals inhibition by little substance. In data set [2], `COc1c(Br)cc(C[C@@H](C(=O)O)N(C)C)cc1Br` [TODB-2M] showed a CC50 at 48 h of 165 µM. For the same molecule, in [9], the viability at 7 days was over 90%. The inhibition at 75 µM in data set [7] (Human immunodeficiency virus 1, BAL, PBMC, 168 h, 75 μM, 7 days, read-out: inhibition of HIV-1 BaL replication in PBMC, flow cytometry (intracellular p24)) turned out to be 56.5%; in data set [3] (setting [10]), 9.9%; in [4] (setting [11]), 37.7%. In addition, the inhibition at 150 µM in data set [7] (Human immunodeficiency virus 1, BAL, PBMC, 168 h, 150 µM, 7 days, read-out: inhibition of HIV-1 BaL replication in PBMC, flow cytometry (intracellular p24)) was over 60%; in data set [8] (setting [12]), 44.2%; in [3] (setting [10]), 95.9%; in [4] (setting [11]), 45.8%. Moreover, in data set [7] (all concentrations, 7 days), the “inhibition of HIV-1 BaL replication in PBMC, flow cytometry (intracellular p24)” value is “over 50%”. Further, the values for the SI in data set [8], in [3] and in data set [4] were 1.16, about 1.99 and 1.45, respectively. For the same molecule, the IC50 in data set [8] (Human immunodeficiency virus 1, TZM-bl, 48 h) is 142 µM; in data set [3] it was about 82.7 µM; in data set [4] (setting [13]), 114 µM. Moreover, the values for the inhibition at 18 µM in [3] (setting [10]) and in data set [4] (setting [11]) were 22.2% and 36.3%, respectively. Moreover, the inhibition at 37 µM in data set [3] (setting [10]) is -4%; in data set [4] (setting [11]), 34.1%.
With `COc1c(Cl)cc(C[C@@H](C(=O)O)[N+](C)(C)C)cc1Cl` [TODC-3M], in data set [2], the CC50 at 48 h stood at 74.9 µM. In data set [9], the viability at 7 days was over 90%. Also, the “percentage inhibition of HIV-GFP-VSV-G replication” value in data set [8] was determined as 19.5%. For the same molecule, in data set [3] (setting [10]), the inhibition at 18 µM was -1.3%, the inhibition at 37 µM was -6.9%, the inhibition at 75 µM was determined as 26.7% and the inhibition at 150 µM was 14.9%. Besides, in data set [4] (setting [11]), the inhibition at 37 µM was 54.9%, the inhibition at 75 µM came out at 37.6% and the inhibition at 150 µM came to 46.7%. Moreover, the inhibition at 300 µM in [4] (Human immunodeficiency virus 1, BAL, 300 µM, TZM-bl cells, read-out: Percentage inhibition of HIV-1 BaL replication) came out at 59.9%.
Turning to `C[N+](C)(C)CCc1cc(Cl)c(O)c(Cl)c1` [YDC-3M], the CC50 at 48 h in data set [2] was found to be 39.9 µM. Besides, the viability at 7 days in data set [9] is over 90%. The values for the inhibition at 150 µM in data set [8] (setting [12]), in [3] (setting [10]) and in [4] (setting [11]) were 12.5%, 29.9% and 27.5%, respectively. Moreover, the inhibition at 18 µM in [3] (setting [10]) came to 41%; in data set [4] (setting [11]) it was 50.2%. Also, the values for the inhibition at 37 µM in data set [3] (setting [10]) and in [4] (setting [11]) were -25.7% and 42.3%, respectively. The inhibition at 75 µM in [3] (setting [10]) is 31.2%; in [4] (setting [11]), 33.4%. Further, the IC50 in [3] was found to be 22.3 µM; in data set [4] (TZM-bl cells) it was 37.7 µM; in data set [4] (setting [13]), 37.2 µM. In data set [4], the SI was 1.07.
